Results published in patent US8835647B2, “2-((R)-2-methylpyrrolidin-2-yl)-1H-benzimidazole-4-carboxamide crystalline form 1” (AbbVie Inc., priority 2007, dated 2014).

Experiments:
[1] = at 25° C.
tumor = tumor bearing animals; cited from earlier work

| Compound | thermodynamic stability of crystalline form [1] | tumor growth (tumor) |
| --- | --- | --- |
| C[C@]1(c2nc3c(C(N)=O)cccc3[nH]2)CCCN1 [ABT-888 Crystalline Form 1, 2-((R)-2-Methylpyrrolidin-2-yl)-1H-benzimidazole-4-carboxamide Crystalline Form 1] | most thermodynamically stable crystalline form of ABT-888 |  |
| C[C@]1(c2nc3c(C(N)=O)cccc3[nH]2)CCCN1 [ABT-888, 2-((R)-2-methylpyrrolidin-2-yl)-1H-benzimidazole-4-carboxamide] |  | limit tumor growth |
